Measured values published in PMC12445692 (2025).

Columns and labels:
[1] = system: 5'-Cy5 KIT (DNA, G4) GGGAGGGAGGGCGCTGGGAGGAGGG; assay: fluorescence polarization, single-site fit; conditions: K+ (20 mM potassium phosphate, 80 mM KCl); pH 7.4, room temperature, 20 nM DNA; ligand 0-2 μM
[2] = system: 5'-Cy5 RET (DNA, G4) GGGGCGGGGCGGGGCGGGGG; assay: fluorescence polarization, single-site fit; conditions: K+ (20 mM potassium phosphate, 80 mM KCl); pH 7.4, room temperature, 20 nM DNA; ligand 0-2 μM
[3] = system: Myc2345 (DNA, G4) TGAGGGTGGGTAGGGTGGGGAA; assay: differential scanning calorimetry; conditions: 100 μM DNA, DNA:ligand 1:4 (400 μM BTO-28), 1.0°C/min
[4] = system: Myc2345 (DNA, G4) TGAGGGTGGGTAGGGTGGGGAA; assay: 1H NMR titration and 15N HSQC
[5] = system: MYC G4 (Myc2345_T23) (DNA, G4) TGAGGGTGGGTAGGGTGGGTAA; assay: differential scanning calorimetry; conditions: 100 μM DNA, DNA:ligand 1:4 (400 μM BTO-28), 1.0°C/min
[6] = system: 5'-Cy5 dsDNA (DNA, duplex) CAATCGGATCGAATTCGATCCGATTG; assay: fluorescence polarization, single-site fit; conditions: K+ (20 mM potassium phosphate, 80 mM KCl); pH 7.4, room temperature, 20 nM DNA; ligand 0-2 μM
[7] = system: 5'-Cy5 MYC G4 (DNA, G4) TGAGGGTGGGTAGGGTGGGTAA; assay: fluorescence polarization, single-site fit; conditions: K+ (20 mM potassium phosphate, 80 mM KCl); pH 7.4, room temperature, 20 nM DNA; high-affinity site; Cy5 end not given, 5' inferred
[8] = system: 5'-Cy5 KRAS (DNA, G4) AGGGCGGTGTGGGAAGAGGGAAGAGGGGGAGGCAG; assay: fluorescence polarization, single-site fit; conditions: K+ (20 mM potassium phosphate, 80 mM KCl); pH 7.4, room temperature, 20 nM DNA; ligand 0-2 μM
[9] = system: dsDNA (DNA, duplex) CAATCGGATCGAATTCGATCCGATTG; assay: differential scanning calorimetry; conditions: 100 μM DNA, DNA:ligand 1:4 (400 μM BTO-28), 1.0°C/min
[10] = system: MYC G4 (Myc2345_T23) (DNA, G4) TGAGGGTGGGTAGGGTGGGTAA; assay: ESI mass spectrometry; conditions: K+ (20 mM potassium phosphate, 80 mM KCl); pH 7.4, 100 μM DNA
[11] = system: NHE III1 (DNA, G4) TGGGGAGGGTGGGGAGGGTGGGGAAGG; assay: differential scanning calorimetry; conditions: 100 μM DNA, DNA:ligand 1:4 (400 μM BTO-28), 1.0°C/min
[12] = system: 5'-Cy5 hTERT (DNA, G4) GGGTTAGGGTTAGGGTTAGGGTTAGGGTTAG; assay: fluorescence polarization, single-site fit; conditions: K+ (20 mM potassium phosphate, 80 mM KCl); pH 7.4, room temperature, 20 nM DNA; ligand 0-2 μM
[13] = system: 3'-Cy5 MYC G4 (DNA, G4) TGAGGGTGGGTAGGGTGGGTAA; assay: fluorescence polarization, single-site fit; conditions: K+ (20 mM potassium phosphate, 80 mM KCl); pH 7.4, room temperature, 20 nM DNA; weaker than 5' end
[14] = system: MYC G4 (Myc2345_T23) (DNA, G4) TGAGGGTGGGTAGGGTGGGTAA; assay: NMR solution structure; conditions: K+ (2 mM potassium phosphate, 8 mM KCl); pH 7.4, 298 K
[15] = system: Myc2345 (DNA, G4) TGAGGGTGGGTAGGGTGGGGAA; assay: ESI mass spectrometry; conditions: K+ (20 mM potassium phosphate, 80 mM KCl); pH 7.4, 100 μM DNA

With `Cc1cc(/C=C2\Sc3ccccc3N2CCCN2CCCC2)c2ccccc2[n+]1C` the KD [1] was 1246 ± 77.91 nM, the KD [2] was greater than 2000 nM and the ΔTm [3] was 26.0 °C. For the same compound, the binding [4] was “yes”, the ΔTm [5] was 25.6 °C and the KD [6] was greater than 2000 nM. The KD [7] was 6.8 nM, the KD [8] was 670.0 ± 35.09 nM and the ΔTm [9] was -4.3 °C. The binding [10] was “yes”, the binding [11] was “yes” and the KD [12] was greater than 2000 nM. The KD [13] was 89.80 ± 5.070 nM, the binding [14] was “yes” and the binding [15] was “yes”.
